Results reported in the supplement of paper PMC11061612.

Assays:
[1] = test system: BHT-101 (Thyroid Gland Carcinoma); experiment: Bliss excess, mean over the matrix (fraction); higher = more synergy
Method in brief: (§1)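 Cell lines in DMEM/F12 or RPMI with 10% FBS were plated in 1536-well plates, held 24 hours at 37°C, 5% CO2, then given two-drug dose matrices for 72 hours (DMSO typically 0.2%). Viability was read by CellTiter-Glo 2.0 luminescence and scaled as inhibition from 0 (vehicle wells) to 1 (blank wells). Combination Emax is the second-highest inhibition in the matrix; Bliss excess is observed combination effect minus expected EA + EB − EA·EB, EA and EB being single-agent effects.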

[2] = test system: C-33-A (Cervical Carcinoma); experiment: as above
Method in brief: as §1

ES6 (Ewing's Sarcoma) = experiment: as above
Method in brief: as §1

KALS-1 (Glioblastoma) = experiment: as above
Method in brief: as §1

[3] = test system: KP-4 (Pancreatic Carcinoma); experiment: as above
Method in brief: as §1

[4] = test system: LS-1034 (Colorectal Carcinoma); experiment: as above
Method in brief: as §1

[5] = test system: MOLT-13 (T-Lymphoblastic Leukemia); experiment: as above
Method in brief: as §1

[6] = test system: MONO-MAC-6 (Acute Myeloid Leukemia); experiment: as above
Method in brief: as §1

[7] = test system: NCI-H1963 (Small Cell Lung Carcinoma); experiment: as above
Method in brief: as §1

[8] = test system: NCI-H596 (Other Solid Carcinomas); experiment: as above
Method in brief: as §1

[9] = test system: OVCAR-3 (Ovarian Carcinoma); experiment: as above
Method in brief: as §1

[10] = test system: SAT (Head and Neck Carcinoma); experiment: as above
Method in brief: as §1

[11] = test system: SCC-4 (Oral Cavity Carcinoma); experiment: as above
Method in brief: as §1

[12] = test system: SNU-407 (Colorectal Carcinoma); experiment: as above
Method in brief: as §1

[13] = test system: SiHa (Cervical Carcinoma); experiment: as above
Method in brief: as §1

[14] = test system: T84 (Colorectal Carcinoma); experiment: as above
Method in brief: as §1

[15] = test system: TUR (Acute Myeloid Leukemia); experiment: as above
Method in brief: as §1

[16] = test system: IA-LM (Non-Small Cell Lung Carcinoma); experiment: combination Emax (second highest fraction inhibited in the dose matrix, 72 h); higher = more inhibition; extreme values may be limits of the assay
Method in brief: as §1

IST-MEL1 (Melanoma) = experiment: as above
Method in brief: as §1

[17] = test system: Raji (Burkitt's Lymphoma); experiment: as above
Method in brief: as §1
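For Bliss excess, mean over the matrix in this document: after 72 h of two-drug dosing.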

Compound	Bliss excess [1]	Bliss excess [2]	Bliss excess (ES6 (Ewing's Sarcoma))	Bliss excess (KALS-1 (Glioblastoma))	Bliss excess [3]	Bliss excess [4]	Bliss excess [5]	Bliss excess [6]	Bliss excess [7]	Bliss excess [8]	Bliss excess [9]	Bliss excess [10]	Bliss excess [11]	Bliss excess [12]	Bliss excess [13]	Bliss excess [14]	Bliss excess [15]	combination Emax [16]	combination Emax (IST-MEL1 (Melanoma))	combination Emax [17]
Cc1cc2ncnn2cc1Nc1ncc2c(n1)n(C1CCOCC1)c(=O)n2C [AZD7648] + O=C(c1cc(Cc2n[nH]c(=O)c3ccccc23)ccc1F)N1CCN(C(=O)C2CC2)CC1 [Olaparib] (first compound max 10 µM, 7x7, partner max 10 µM)	-0.0071	-0.0107	-0.0341	-0.0225	-0.0225	-0.0353	0.0242	-0.0146	-0.0052	-0.0384	-0.0257	-0.039	-0.0422	-0.0796	-0.0389	-0.0256	0.0054	0.158	0.24	0.396
COc1nnc2ccc(N3CCC(c4ccc(OCCN5CCN(C)C(=O)[C@H]5C)cc4)CC3)nn12 [AZD5153] + Cc1c2c(nn1C)CSCc1cc(n(C)n1)CSc1cc(c3ccccc3c1)OCCCc1c(C(=O)O)n(C)c3c-2c(Cl)ccc13 [AZD5991] (first compound max 1 µM, 7x7, partner max 1 µM)	0.0167	0.0124	-0.0033	0.0141	-0.0231	-0.0569	-0.0503	0.0451	0.0125	-0.0532	0.0003	0.0109	-0.0208	-0.0996	-0.0237	-0.0524	0.0507	0.483	0.242	0.896
Cc1nc(Nc2ncc(C(=O)Nc3c(C)cccc3Cl)s2)cc(N2CCN(CCO)CC2)n1 [Dasatinib] + CC(=O)Nc1cccc(-n2c(=O)n(C3CC3)c(=O)c3c(Nc4ccc(I)cc4F)n(C)c(=O)c(C)c32)c1 [Trametinib] (first compound max 2 µM, 7x7, partner max 1 µM)	0.0569	0.0559	-0.0495	-0.0046	0.0558	-0.0302	0.0463	-0.0052	0.0078	-0.0018	-0.001	-0.0712	-0.0042	0.0332	-0.0082	-0.0174	-0.0919	0.654	0.793	0.134
COc1cccc(OCCCN)c1-c1cc(Nc2cnc(C#N)cn2)n[nH]1 [Prexasertib] + C=CCn1c(=O)c2cnc(Nc3ccc(N4CCN(C)CC4)cc3)nc2n1-c1cccc(C(C)(C)O)n1 [AZD1775] (first compound max 1 µM, partner max 1 µM)	0.136	0.0983	0.0362	-0.0436	0.0861	0.0999	0.0981	0.168	0.068	0.0087	0.16	-0.0318	-0.0358	0.0807	0.0666	0.144	0.105	0.64	0.812	0.977
COc1nnc2ccc(N3CCC(c4ccc(OCCN5CCN(C)C(=O)[C@H]5C)cc4)CC3)nn12 [AZD5153] + CC1(C)CCC(CN2CCN(c3ccc(C(=O)NS(=O)(=O)c4ccc(NCC5CCOCC5)c([N+](=O)[O-])c4)c(Oc4cnc5[nH]ccc5c4)c3)CC2)=C(c2ccc(Cl)cc2)C1 [Venetoclax] (first compound max 1 µM, 7x7, partner max 1 µM)	-0.0616	-0.0107	-0.0327	-0.0418	-0.0465	-0.011	0.11	0.0179	0.0782	-0.0701	-0.0157	-0.0525	-0.0765	-0.0217	-0.0986	-0.0874	-0.0224	0.495	0.14	0.62
C[C@@H]1COCCN1c1cc(C2([S@](C)(=N)=O)CC2)nc(-c2ccnc3[nH]ccc23)n1 [AZD6738] + O=C(c1cc(Cc2n[nH]c(=O)c3ccccc23)ccc1F)N1CCN(C(=O)C2CC2)CC1 [Olaparib] (first compound max 10 µM, 7x7, partner max 10 µM)	0.016	-0.0049	0.0128	0.0028	0.113	-0.0391	0.0645	-0.0438	0.0725	-0.0841	0.0782	0.0019	0.059	-0.0323	0.0106	-0.027	0.0244	0.399	0.726	0.855
